Experimental data reported in PMC4385830, “Group I Paks as therapeutic targets in NF2-deficient meningioma” (Oncotarget, 2015).

Key:
KT21 or Ben-Men cells = assay: Immunoblot of signaling pathways; assay type: cell-based
Experimental: (§1) Protein concentration was determined, and equal amount of total proteins were separated by SDS-PAGE. […] GAPDH and β-actin were used as loading control.

Ben-Men cells = assay: Immunoblot of signaling pathways; assay type: cell-based
Experimental: as §1

YES1 = biological target: T1, YES1 (Homo sapiens, UniProt P07947); assay: Kinase selectivity, Z'-LYTE; assay type: biochemical
T1 construct: purchased Invitrogen (Life Technologies) SelectScreen Z'-LYTE
Experimental: (§2) Kinase selectivity was assessed using a commercial service that employs a fluorescence-based, coupled-enzyme assay based on the differential sensitivity of phosphorylated and non-phosphorylated peptides to proteolytic cleavage (Invitrogen, Z'-LYTE®). This assay uses recombinant protein kinases and assay mixed optimized for each particular kinase (http://www.lifetechnologies.com/us/en/home/life-science/drug-discovery/target-and-lead-identification-and-validation /kinasebiology/kinase-activity-assays/z-lyte.html).

JAK2 = biological target: T2, JAK2 (Homo sapiens, UniProt O60674); assay: Kinase selectivity, Z'-LYTE; assay type: biochemical
T2 construct: purchased Invitrogen (Life Technologies) SelectScreen Z'-LYTE
Experimental: as §2

ERBB2 (HER2) = biological target: T3, ERBB2 (HER2) (Homo sapiens, UniProt P04626); assay: Kinase selectivity, Z'-LYTE; assay type: biochemical
T3 construct: purchased Invitrogen (Life Technologies) SelectScreen Z'-LYTE
Experimental: as §2

MARK3 = biological target: T4, MARK3 (Homo sapiens, UniProt P27448); assay: Kinase selectivity, Z'-LYTE; assay type: biochemical
T4 construct: purchased Invitrogen (Life Technologies) SelectScreen Z'-LYTE
Experimental: as §2

P1K3C2B (P13K-C2-beta) = biological target: T5, P1K3C2B (P13K-C2-beta) (Homo sapiens, UniProt O00750); assay: Kinase selectivity, Z'-LYTE; assay type: biochemical
T5 construct: purchased Invitrogen (Life Technologies) SelectScreen Z'-LYTE
Experimental: as §2

CDK5/p35 = biological target: T6, CDK5/p35 (Homo sapiens, UniProt Q00535); assay: Kinase selectivity, Z'-LYTE; assay type: biochemical
T6 construct: purchased Invitrogen (Life Technologies) SelectScreen Z'-LYTE
Experimental: as §2

RP88KA8 (RSK2) = biological target: T7, RP88KA8 (RSK2) (Homo sapiens, UniProt P51812); assay: Kinase selectivity, Z'-LYTE; assay type: biochemical
T7 construct: purchased Invitrogen (Life Technologies) SelectScreen Z'-LYTE
Experimental: as §2

ADRBK2 (GRK3) = biological target: T8, ADRBK2 (GRK3) (Homo sapiens, UniProt P35626); assay: Kinase selectivity, Z'-LYTE; assay type: biochemical
T8 construct: purchased Invitrogen (Life Technologies) SelectScreen Z'-LYTE
T8 sequence (P35626 1-688): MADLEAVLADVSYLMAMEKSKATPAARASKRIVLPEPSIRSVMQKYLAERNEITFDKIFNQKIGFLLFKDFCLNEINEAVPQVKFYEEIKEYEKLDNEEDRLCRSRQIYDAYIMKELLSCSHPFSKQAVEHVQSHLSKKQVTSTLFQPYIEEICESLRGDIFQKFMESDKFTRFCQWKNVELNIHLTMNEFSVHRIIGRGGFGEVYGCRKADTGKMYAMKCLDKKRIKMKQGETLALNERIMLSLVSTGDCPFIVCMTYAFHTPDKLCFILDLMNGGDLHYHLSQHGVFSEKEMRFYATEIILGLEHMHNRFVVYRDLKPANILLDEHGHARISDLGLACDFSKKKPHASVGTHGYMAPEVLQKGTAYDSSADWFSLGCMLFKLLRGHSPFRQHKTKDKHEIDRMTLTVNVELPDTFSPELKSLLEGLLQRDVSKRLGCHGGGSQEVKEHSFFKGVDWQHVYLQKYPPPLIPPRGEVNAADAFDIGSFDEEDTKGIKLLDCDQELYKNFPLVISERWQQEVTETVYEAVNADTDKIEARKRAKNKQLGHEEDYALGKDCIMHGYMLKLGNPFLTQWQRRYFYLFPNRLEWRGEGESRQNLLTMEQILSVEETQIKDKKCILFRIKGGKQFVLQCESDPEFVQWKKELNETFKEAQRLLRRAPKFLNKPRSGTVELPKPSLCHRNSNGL
Experimental: as §2

G3K3A (G3K3 alpha) = biological target: T9, G3K3A (G3K3 alpha) (Homo sapiens, UniProt P49840); assay: Kinase selectivity, Z'-LYTE; assay type: biochemical
T9 construct: purchased Invitrogen (Life Technologies) SelectScreen Z'-LYTE
Experimental: as §2

PRKCQ (PKC theta) = biological target: T10, PRKCQ (PKC theta) (Homo sapiens, UniProt Q04759); assay: Kinase selectivity, Z'-LYTE; assay type: biochemical
T10 construct: purchased Invitrogen (Life Technologies) SelectScreen Z'-LYTE
Experimental: as §2

EGFR (ErbB1) = biological target: T11, EGFR (ErbB1) (Homo sapiens, UniProt P00533); assay: Kinase selectivity, Z'-LYTE; assay type: biochemical
T11 construct: purchased Invitrogen (Life Technologies) SelectScreen Z'-LYTE
Experimental: as §2

PDGFRA (PDGFR alpha) = biological target: T12, PDGFRA (PDGFR alpha) (Homo sapiens, UniProt P16234); assay: Kinase selectivity, Z'-LYTE; assay type: biochemical
T12 construct: purchased Invitrogen (Life Technologies) SelectScreen Z'-LYTE
Experimental: as §2

MAPK10 (JNK3) = biological target: T13, MAPK10 (JNK3) (Homo sapiens, UniProt P53779); assay: Kinase selectivity, Z'-LYTE; assay type: biochemical
T13 construct: purchased Invitrogen (Life Technologies) SelectScreen Z'-LYTE
Experimental: as §2

PDK1 Direct = biological target: T14, PDK1 Direct (Homo sapiens, UniProt O15530); assay: Kinase selectivity, Z'-LYTE; assay type: biochemical
T14 construct: purchased Invitrogen (Life Technologies) SelectScreen Z'-LYTE
T14 sequence (O15530 1-556): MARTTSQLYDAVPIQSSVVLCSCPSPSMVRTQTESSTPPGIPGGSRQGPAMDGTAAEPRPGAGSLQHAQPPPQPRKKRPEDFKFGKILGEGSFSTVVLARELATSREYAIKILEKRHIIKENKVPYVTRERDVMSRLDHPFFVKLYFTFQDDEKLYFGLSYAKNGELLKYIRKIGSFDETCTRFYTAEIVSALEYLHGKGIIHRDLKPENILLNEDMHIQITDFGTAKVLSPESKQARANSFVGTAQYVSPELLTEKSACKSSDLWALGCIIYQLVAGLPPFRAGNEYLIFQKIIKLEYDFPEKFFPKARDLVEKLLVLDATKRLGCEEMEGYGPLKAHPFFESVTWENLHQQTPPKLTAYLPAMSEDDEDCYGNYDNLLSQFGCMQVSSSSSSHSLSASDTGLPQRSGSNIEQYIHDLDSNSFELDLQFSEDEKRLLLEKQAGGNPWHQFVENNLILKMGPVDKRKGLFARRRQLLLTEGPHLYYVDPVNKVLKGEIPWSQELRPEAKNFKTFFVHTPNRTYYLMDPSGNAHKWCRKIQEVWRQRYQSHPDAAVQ
Experimental: as §2

STK22D (TSSK1) = biological target: T15, STK22D (TSSK1) (Homo sapiens, UniProt Q9BXA7); assay: Kinase selectivity, Z'-LYTE; assay type: biochemical
T15 construct: purchased Invitrogen (Life Technologies) SelectScreen Z'-LYTE
T15 sequence (Q9BXA7 1-367): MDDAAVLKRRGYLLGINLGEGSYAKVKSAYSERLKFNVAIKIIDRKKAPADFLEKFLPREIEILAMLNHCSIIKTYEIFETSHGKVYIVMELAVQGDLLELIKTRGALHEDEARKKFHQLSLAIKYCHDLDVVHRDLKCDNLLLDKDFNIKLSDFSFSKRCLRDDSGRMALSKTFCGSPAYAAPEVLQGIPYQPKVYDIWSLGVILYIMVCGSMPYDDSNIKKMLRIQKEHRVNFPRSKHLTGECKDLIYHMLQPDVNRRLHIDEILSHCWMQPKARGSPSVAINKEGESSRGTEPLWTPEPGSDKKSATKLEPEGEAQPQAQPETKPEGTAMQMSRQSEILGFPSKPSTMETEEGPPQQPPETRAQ
Experimental: as §2

JAK1 = biological target: T16, JAK1 (Homo sapiens, UniProt P23458); assay: Kinase selectivity, Z'-LYTE; assay type: biochemical
T16 construct: purchased Invitrogen (Life Technologies) SelectScreen Z'-LYTE
Experimental: as §2

[1] = inhibitors at IC50 concentration

T10 sequence (Q04759 whole entry): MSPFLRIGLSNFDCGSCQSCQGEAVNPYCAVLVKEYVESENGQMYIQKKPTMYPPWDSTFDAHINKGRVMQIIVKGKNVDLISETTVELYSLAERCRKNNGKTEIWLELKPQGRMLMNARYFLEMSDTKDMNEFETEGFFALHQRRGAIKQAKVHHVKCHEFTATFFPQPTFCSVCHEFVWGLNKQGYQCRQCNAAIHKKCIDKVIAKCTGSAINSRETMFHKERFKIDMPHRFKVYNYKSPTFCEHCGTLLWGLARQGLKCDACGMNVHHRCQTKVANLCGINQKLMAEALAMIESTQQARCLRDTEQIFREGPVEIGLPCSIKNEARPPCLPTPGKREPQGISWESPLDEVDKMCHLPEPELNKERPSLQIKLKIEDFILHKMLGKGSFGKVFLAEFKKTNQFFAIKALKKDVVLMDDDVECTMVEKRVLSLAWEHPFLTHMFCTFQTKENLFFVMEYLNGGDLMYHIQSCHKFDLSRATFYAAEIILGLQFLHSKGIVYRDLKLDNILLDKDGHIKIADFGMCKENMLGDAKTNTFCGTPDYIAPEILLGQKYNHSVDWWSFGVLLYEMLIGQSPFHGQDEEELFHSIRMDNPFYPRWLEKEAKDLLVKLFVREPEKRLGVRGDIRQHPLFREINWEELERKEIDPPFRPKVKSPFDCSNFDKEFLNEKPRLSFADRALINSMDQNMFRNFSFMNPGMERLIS
T4 sequence (P27448 whole entry): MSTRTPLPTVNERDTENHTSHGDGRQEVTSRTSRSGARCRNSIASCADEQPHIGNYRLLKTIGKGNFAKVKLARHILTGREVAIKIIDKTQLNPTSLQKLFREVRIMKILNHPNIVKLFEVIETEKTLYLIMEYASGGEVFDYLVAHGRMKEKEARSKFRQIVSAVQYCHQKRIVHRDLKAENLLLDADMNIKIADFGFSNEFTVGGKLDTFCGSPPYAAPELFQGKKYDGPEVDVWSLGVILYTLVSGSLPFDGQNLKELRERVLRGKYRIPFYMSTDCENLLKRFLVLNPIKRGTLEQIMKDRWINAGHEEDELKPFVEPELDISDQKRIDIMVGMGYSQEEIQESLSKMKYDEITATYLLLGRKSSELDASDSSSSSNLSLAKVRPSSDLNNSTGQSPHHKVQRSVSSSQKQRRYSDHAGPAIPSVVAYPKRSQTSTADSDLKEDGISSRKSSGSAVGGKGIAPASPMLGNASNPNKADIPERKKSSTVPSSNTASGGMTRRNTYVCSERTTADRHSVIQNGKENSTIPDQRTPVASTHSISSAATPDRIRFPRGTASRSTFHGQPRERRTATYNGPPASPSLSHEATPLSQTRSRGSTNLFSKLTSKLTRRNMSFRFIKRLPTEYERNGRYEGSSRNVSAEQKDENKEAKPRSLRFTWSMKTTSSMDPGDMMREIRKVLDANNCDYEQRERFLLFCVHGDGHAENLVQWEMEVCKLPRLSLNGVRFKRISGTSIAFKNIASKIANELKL
T5 sequence (O00750 whole entry, stated change not applied): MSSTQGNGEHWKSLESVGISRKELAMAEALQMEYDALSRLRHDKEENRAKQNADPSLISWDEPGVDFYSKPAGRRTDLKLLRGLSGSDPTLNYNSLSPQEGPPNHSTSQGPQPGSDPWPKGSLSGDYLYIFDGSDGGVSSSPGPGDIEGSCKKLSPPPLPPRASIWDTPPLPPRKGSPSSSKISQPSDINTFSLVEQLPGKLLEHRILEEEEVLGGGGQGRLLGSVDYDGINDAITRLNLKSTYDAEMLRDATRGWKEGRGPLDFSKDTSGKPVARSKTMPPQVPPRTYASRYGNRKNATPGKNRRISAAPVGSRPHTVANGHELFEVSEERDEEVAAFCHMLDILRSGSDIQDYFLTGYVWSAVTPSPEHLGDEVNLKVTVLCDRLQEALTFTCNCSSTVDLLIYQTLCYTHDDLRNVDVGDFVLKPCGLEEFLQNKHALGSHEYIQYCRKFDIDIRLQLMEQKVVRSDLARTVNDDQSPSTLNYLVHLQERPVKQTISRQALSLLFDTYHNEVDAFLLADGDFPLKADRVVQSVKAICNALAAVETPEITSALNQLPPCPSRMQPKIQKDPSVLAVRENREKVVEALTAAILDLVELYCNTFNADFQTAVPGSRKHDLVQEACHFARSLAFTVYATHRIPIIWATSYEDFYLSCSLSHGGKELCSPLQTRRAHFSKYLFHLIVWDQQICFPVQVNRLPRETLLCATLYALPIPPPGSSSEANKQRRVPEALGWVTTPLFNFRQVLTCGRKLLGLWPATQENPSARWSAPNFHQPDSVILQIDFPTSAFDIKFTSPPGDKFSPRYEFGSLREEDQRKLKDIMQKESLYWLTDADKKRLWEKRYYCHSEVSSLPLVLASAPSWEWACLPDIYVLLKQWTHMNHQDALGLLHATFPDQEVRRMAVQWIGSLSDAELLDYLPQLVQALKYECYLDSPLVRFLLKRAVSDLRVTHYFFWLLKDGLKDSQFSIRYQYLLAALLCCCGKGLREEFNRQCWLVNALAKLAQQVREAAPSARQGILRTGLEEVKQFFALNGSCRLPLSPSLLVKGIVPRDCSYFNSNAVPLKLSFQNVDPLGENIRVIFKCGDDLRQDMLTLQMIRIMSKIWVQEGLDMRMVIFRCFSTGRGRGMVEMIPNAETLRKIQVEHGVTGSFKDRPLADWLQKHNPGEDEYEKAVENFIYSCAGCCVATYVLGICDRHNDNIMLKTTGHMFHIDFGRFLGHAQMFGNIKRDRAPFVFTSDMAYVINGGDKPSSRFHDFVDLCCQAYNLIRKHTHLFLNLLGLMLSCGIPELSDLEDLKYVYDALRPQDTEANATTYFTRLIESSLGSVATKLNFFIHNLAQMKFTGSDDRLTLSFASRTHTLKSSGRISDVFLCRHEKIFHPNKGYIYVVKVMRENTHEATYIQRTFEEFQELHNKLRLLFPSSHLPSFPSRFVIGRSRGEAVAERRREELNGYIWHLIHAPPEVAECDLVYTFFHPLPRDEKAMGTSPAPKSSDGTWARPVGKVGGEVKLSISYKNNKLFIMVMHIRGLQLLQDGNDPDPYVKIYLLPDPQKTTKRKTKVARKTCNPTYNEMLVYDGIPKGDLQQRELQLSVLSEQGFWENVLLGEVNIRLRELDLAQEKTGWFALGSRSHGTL
T13 sequence (P53779 whole entry): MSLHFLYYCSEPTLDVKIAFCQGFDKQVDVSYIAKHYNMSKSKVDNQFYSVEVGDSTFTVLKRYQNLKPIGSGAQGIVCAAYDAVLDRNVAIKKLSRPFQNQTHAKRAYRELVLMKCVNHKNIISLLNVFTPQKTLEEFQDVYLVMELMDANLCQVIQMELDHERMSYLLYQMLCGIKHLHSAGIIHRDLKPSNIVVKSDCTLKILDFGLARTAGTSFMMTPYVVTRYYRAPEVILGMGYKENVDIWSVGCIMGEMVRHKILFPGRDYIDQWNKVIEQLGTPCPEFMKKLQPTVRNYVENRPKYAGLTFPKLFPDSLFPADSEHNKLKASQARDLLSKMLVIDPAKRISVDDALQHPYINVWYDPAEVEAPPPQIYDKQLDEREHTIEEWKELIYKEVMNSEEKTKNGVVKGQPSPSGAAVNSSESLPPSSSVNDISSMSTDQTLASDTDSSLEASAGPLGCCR
T9 sequence (P49840 whole entry): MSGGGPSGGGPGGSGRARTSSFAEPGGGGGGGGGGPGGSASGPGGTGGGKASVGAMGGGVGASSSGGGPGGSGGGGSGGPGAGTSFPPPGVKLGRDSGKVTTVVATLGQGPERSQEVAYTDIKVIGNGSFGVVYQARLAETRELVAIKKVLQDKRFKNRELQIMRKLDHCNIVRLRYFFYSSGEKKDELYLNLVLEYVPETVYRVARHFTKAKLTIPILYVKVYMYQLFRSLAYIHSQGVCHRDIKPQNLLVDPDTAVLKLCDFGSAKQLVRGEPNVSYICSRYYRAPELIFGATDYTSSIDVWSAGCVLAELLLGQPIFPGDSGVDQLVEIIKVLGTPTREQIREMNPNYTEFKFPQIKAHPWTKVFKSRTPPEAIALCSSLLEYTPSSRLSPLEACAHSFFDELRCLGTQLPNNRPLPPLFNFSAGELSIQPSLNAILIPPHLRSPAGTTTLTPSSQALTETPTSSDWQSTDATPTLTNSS
T1 sequence (P07947 whole entry): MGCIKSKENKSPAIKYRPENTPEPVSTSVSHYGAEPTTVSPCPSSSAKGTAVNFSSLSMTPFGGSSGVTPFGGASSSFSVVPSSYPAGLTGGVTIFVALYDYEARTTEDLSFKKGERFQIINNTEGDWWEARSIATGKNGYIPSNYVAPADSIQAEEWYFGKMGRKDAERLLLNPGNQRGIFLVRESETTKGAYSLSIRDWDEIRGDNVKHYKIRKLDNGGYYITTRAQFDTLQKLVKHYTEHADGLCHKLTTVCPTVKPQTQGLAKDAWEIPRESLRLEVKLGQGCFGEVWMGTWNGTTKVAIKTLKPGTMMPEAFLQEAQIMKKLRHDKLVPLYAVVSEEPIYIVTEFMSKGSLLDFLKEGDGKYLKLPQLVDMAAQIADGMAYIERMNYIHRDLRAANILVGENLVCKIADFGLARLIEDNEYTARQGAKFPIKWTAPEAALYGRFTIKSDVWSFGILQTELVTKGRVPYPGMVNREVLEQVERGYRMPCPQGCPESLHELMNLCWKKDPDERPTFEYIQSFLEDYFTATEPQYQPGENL

% inhibition of activity (YES1) [%]	% inhibition of activity (JAK2) [%]	% inhibition of activity (ERBB2 (HER2)) [%]	% inhibition of activity (MARK3) [%]	% inhibition of activity (P1K3C2B (P13K-C2-beta)) [%]	% inhibition of activity (CDK5/p35) [%]	% inhibition of activity (RP88KA8 (RSK2)) [%]	% inhibition of activity (ADRBK2 (GRK3)) [%]	% inhibition of activity (G3K3A (G3K3 alpha)) [%]	% inhibition of activity (PRKCQ (PKC theta)) [%]	% inhibition of activity (EGFR (ErbB1)) [%]	% inhibition of activity (PDGFRA (PDGFR alpha)) [%]	% inhibition of activity (MAPK10 (JNK3)) [%]	% inhibition of activity (PDK1 Direct) [%]	% inhibition of activity (STK22D (TSSK1)) [%]	% inhibition of activity (JAK1) [%]	Compound	phosphorylation of Pak and Mek1 (at Ser298) (KT21 or Ben-Men cells; [1])	basal level (expression) of β-catenin (Ben-Men cells)	other results
18	0	2	24	2	7	11	−1	7	24	2	2	45	0	12	1	CCn1c(=O)c(-c2ccc(-c3cncc(C)n3)cc2Cl)cc2cnc(NCCC3CCN(C)CC3)nc21 [Frax1036]	nearly abolished	induction	–
86	14	4	100	8	15	100	4	52	97	4	2	5	67	90	2	Cc1nc(Nc2[nH]nc3c2CN(C(=O)N[C@H](CN(C)C)c2ccccc2)C3(C)C)c2sccc2n1 [PF3758309, reference compound]	dramatically inhibited	induction	activity of Akt (KT21 or Ben-Men cells; either cell type): did not influence; Erk activity (KT21 or Ben-Men cells; [1]): decrease

Compound	% inhibition of activity (YES1) [%]	% inhibition of activity (JAK2) [%]	% inhibition of activity (ERBB2 (HER2)) [%]	% inhibition of activity (MARK3) [%]	% inhibition of activity (P1K3C2B (P13K-C2-beta)) [%]	% inhibition of activity (CDK5/p35) [%]	% inhibition of activity (RP88KA8 (RSK2)) [%]	% inhibition of activity (ADRBK2 (GRK3)) [%]	% inhibition of activity (G3K3A (G3K3 alpha)) [%]	% inhibition of activity (PRKCQ (PKC theta)) [%]	% inhibition of activity (EGFR (ErbB1)) [%]	% inhibition of activity (PDGFRA (PDGFR alpha)) [%]	% inhibition of activity (MAPK10 (JNK3)) [%]	% inhibition of activity (PDK1 Direct) [%]	% inhibition of activity (STK22D (TSSK1)) [%]	% inhibition of activity (JAK1) [%]	phosphorylation of Pak and Mek1 (at Ser298) (KT21 or Ben-Men cells; [1])	basal level (expression) of β-catenin (Ben-Men cells)	other results
CCn1c(=O)c(-c2ccc(-c3noc(C)n3)cc2Cl)cc2cnc(Nc3ccc(C4CCN(C)CC4)cc3)nc21 [Frax716]	89	7	8	16	−1	2	6	2	−9	12	20	95	12	15	5	1	dramatically inhibited	did not impact	phosphorylation of β-catenin (Ben-Men cells): diminished
